The values below come from US20090143454A1, “Pyrazoline Derivatives and Their Use As Pesticides” (BAYER CROPSCIENCE AG, priority 2001, published 2009).

Test system in the first data set: not listed separately
The experiment in a line: logP determination by HPLC on reversed-phase column (EEC Directive 79/831 Annex V.A8). The class given is physicochemical. As to conditions: pH 2.3. Here is the method:
The logP values given in the Preparation Examples and Tables above are determined in accordance with EEC Directive 79/831 Annex V.A8 by HPLC (High Performance Liquid Chromatography) using a reversed-phase column (C 18). Temperature: 43° C.
The determination in the acidic range is carried out at pH 2.3 using the mobile phases 0.1% aqueous phosphoric acid and acetonitrile; linear gradient from 10% acetonitrile to 90% acetonitrile.
Calibration is carried out using unbranched alkan-2-ones (having 3 to 16 carbon atoms) with known logP values (determination of the logP values by the retention times using linear interpolation between two successive alkanones).
`N#CCN(C(=O)N1CC(n2cc(C#N)cn2)C(c2ccc(Cl)cc2)=N1)c1ccc(C(F)(F)F)cc1` (stereo not shown) [Example 36]: the “logP (pH 2)/m.p.” value is 3.56.
With `CN(C)C(=O)c1cnn(C2CN(C(=O)Nc3ccc(SC(F)(F)F)cc3)N=C2c2ccc(Cl)cc2)c1` (stereo not shown) [Example 26], the “logP (pH 2)/m.p.” value is on record as 3.27.
Still for that read-out and setting: as for `NC(=O)c1cnn(C2CN(C(=O)Nc3ccc(SC(F)(F)F)cc3)N=C2c2ccc(Cl)cc2)c1` (stereo not shown) [Example 24], the figure is 3.24.
Turning to `N#Cc1cnn(C2CNN=C2c2ccc(Br)cc2)c1` (stereo not shown) [II-2], the “logP (pH 2)” value is recorded as 2.20.
Still for that read-out and setting: as for `N#Cc1cnn(C2CNN=C2c2ccc(SC(F)(F)F)cc2)c1` (stereo not shown) [II-4], the figure is 2.78.
For `CNC(=O)c1cnn(C2CN(C(=O)Nc3ccc(SC(F)(F)F)cc3)N=C2c2ccc(Cl)cc2)c1` (stereo not shown) [Example 21], the “logP (pH 2)/m.p.” value came out at 3.39.
For the compound `N#Cc1cnn(C2CN(C(=O)Nc3ccc(SC(F)(F)F)cc3)N=C2c2ccc(Cl)cc2)c1` (stereo not shown) [Example 5], the “logP (pH 2)/m.p.” value amounted to 4.27.
As to `N#Cc1cnn(CC(=O)c2ccc(I)cc2)c1` [VI-4], the “logP (pH 2)” value stood at 2.47.
As to `N#Cc1cnn(C2CN(C(=O)Nc3ccc(OC(F)(F)F)cc3)N=C2c2ccc(Cl)cc2)c1` (stereo not shown) [Example 3], the “logP (pH 2)/m.p.” value came out at 3.91.
With `COC(=O)c1cnn(C2CN(C(=O)Nc3ccc(OC(F)(F)F)cc3)N=C2c2ccc(Cl)cc2)c1` (stereo not shown) [Example 17], the “logP (pH 2)/m.p.” value is recorded as 3.95.
For `N#Cc1cnn(C2CN(C(=O)Nc3ccc(S(=O)(=O)C(F)(F)F)cc3)N=C2c2ccc(Br)cc2)c1` (stereo not shown) [Example 11], the “logP (pH 2)/m.p.” value is given as 3.88.
Same read-out and setting: as for `N#CCN(C(=O)N1CC(n2cc(C#N)cn2)C(c2ccc(Br)cc2)=N1)c1ccc(OC(F)(F)F)cc1` (stereo not shown) [Example 33], the figure is 3.75.
The same measure, in the same setting: under `N#Cc1cnn(C2CN(C(=O)Nc3ccc(C(F)(F)F)cc3)N=C2c2ccc(Br)cc2)c1` (stereo not shown) [Example 37] stands 3.94; under `N#Cc1ccc(NC(=O)N2CC(n3cc(C#N)cn3)C(c3ccc(Cl)cc3)=N2)cc1` (stereo not shown) [Example 29], 3.00.
As for `N#CCN(C(=O)N1CC(n2cc(C#N)cn2)C(c2ccc(Br)cc2)=N1)c1ccc(C(F)(F)F)cc1` (stereo not shown) [Example 35], the “logP (pH 2)/m.p.” value was found to be 3.63.
Regarding `COC(=O)N(C(=O)N1CC(n2cc(C#N)cn2)C(c2ccc(Cl)cc2)=N1)c1ccc(OC(F)(F)F)cc1` (stereo not shown) [Example 6], the “logP (pH 2)/m.p.” value is 3.82.
With `CN(C)C(=O)c1cnn(C2CNN=C2c2ccc(Cl)cc2)c1` (stereo not shown) [II-6], the “logP (pH 2)” value is recorded as 1.54.
As for `N#Cc1cnn(C2CN(C(=O)Nc3ccc(C(F)(F)F)cc3)N=C2c2ccc(Cl)cc2)c1` (stereo not shown) [Example 4], the “logP (pH 2)/m.p.” value amounted to 3.86.
Take `CNC(=O)c1cnn(C2CN(C(=O)Nc3ccc(OC(F)(F)F)cc3)N=C2c2ccc(Cl)cc2)c1` (stereo not shown) [Example 20]: the “logP (pH 2)/m.p.” value is recorded as 3.07.
Take `N#CCNc1ccc(SC(F)(F)F)cc1` [XII-2]: the “logP (pH 2)” value is recorded as 2.82.
On to `N#Cc1cnn(C2CN(C(=O)Nc3ccc(OC(F)(F)F)cc3)N=C2c2ccc(SC(F)(F)F)cc2)c1` (stereo not shown) [Example 15], for which the “logP (pH 2)/m.p.” value came out at 4.39.
In the case of `N#CCNc1ccc(C(F)(F)F)cc1` [XII-3], the “logP (pH 2)” value amounted to 2.36.
Turning to `CN(C)C(=O)c1cnn(C2CN(C(=O)Nc3ccc(S(=O)(=O)C(F)(F)F)cc3)N=C2c2ccc(Cl)cc2)c1` (stereo not shown) [Example 27], the “logP (pH 2)/m.p.” value is recorded as 3.27.
Same read-out and setting: under `N#Cc1cnn(C2CN(C(=O)Nc3ccc(OC(F)(F)F)cc3)N=C2c2ccc(Br)cc2)c1` (stereo not shown) [Example 9] stands 4.00; under `N#Cc1cnn(C2CN(C(=O)Nc3ccc(I)cc3)N=C2c2ccc(Cl)cc2)c1` (stereo not shown) [Example 30], 3.90; under `N#CCN(C(=O)N1CC(n2cc(C#N)cn2)C(c2ccc(Cl)cc2)=N1)c1ccc(Cl)cc1` (stereo not shown) [Example 31], 3.42.
As for `CNC(=O)c1cnn(C2CN(C(=O)Nc3ccc(S(=O)(=O)C(F)(F)F)cc3)N=C2c2ccc(Cl)cc2)c1` (stereo not shown) [Example 22], the “logP (pH 2)/m.p.” value is 3.00.
`N#Cc1cnn(C2CN(C(=O)Nc3ccc(SC(F)(F)F)cc3)N=C2c2ccc(Br)cc2)c1` (stereo not shown) [Example 10]: the “logP (pH 2)/m.p.” value was determined as 4.35.
For `N#Cc1cnn(CC(=O)c2ccc(SC(F)(F)F)cc2)c1` [VI-5], the “logP (pH 2)” value came to 2.91.
The same measure, in the same setting: as for `NC(=O)c1cnn(CC(=O)c2ccc(Cl)cc2)c1` [VI-8], the figure is 1.33.
Same read-out and setting: as for `N#Cc1cnn(CC(=O)c2ccc(Br)cc2)c1` [VI-3], the figure is 2.31.
For the compound `CNC(=O)c1cnn(C2CNN=C2c2ccc(Cl)cc2)c1` (stereo not shown) [II-7], the “logP (pH 2)” value is listed as 1.38.
Still for that read-out and setting: under `N#Cc1cnn(C2CNN=C2c2ccc(I)cc2)c1` (stereo not shown) [II-3] stands 2.33; under `COC(=O)c1cnn(CC(=O)c2ccc(Cl)cc2)c1` [VI-6], 2.20.
Regarding `NC(=O)c1cnn(C2CN(C(=O)Nc3ccc(S(=O)(=O)C(F)(F)F)cc3)N=C2c2ccc(Cl)cc2)c1` (stereo not shown) [Example 25], the “logP (pH 2)/m.p.” value turned out to be 2.94.
Same read-out and setting: under `N#Cc1cnn(C2CN(C(=O)Nc3ccc([S+]([O-])C(F)(F)F)cc3)N=C2c2ccc(Cl)cc2)c1` (stereo not shown) [Example 12] stands 3.28.
`CNC(=O)c1cnn(CC(=O)c2ccc(Cl)cc2)c1` [VI-7]: the “logP (pH 2)” value turned out to be 1.44.
As to `N#CCN(C(=O)N1CC(n2cc(C#N)cn2)C(c2ccc(Br)cc2)=N1)c1ccc(SC(F)(F)F)cc1` (stereo not shown) [Example 34], the “logP (pH 2)/m.p.” value is on record as 3.99.
With `CCOC(=O)N(C(=O)N1CC(n2cc(C#N)cn2)C(c2ccc(Cl)cc2)=N1)c1ccc(OC(F)(F)F)cc1` (stereo not shown) [Example 7], the “logP (pH 2)/m.p.” value is reported as 4.06.
Turning to `N#Cc1cnn(C2CN(C(=O)Nc3ccc(SC(F)(F)F)cc3)N=C2c2ccc(I)cc2)c1` (stereo not shown) [Example 14], the “logP (pH 2)/m.p.” value worked out at 4.48.
Same read-out and setting: under `N#Cc1cnn(C2CN(C(=O)Nc3ccc(OC(F)(F)F)cc3)N=C2c2ccc(I)cc2)c1` (stereo not shown) [Example 13] stands 4.12; under `N#Cc1cnn(C2CN(C(=O)Nc3ccc(Br)cc3)N=C2c2ccc(Cl)cc2)c1` (stereo not shown) [Example 28], 3.73; under `CN(C)C(=O)c1cnn(C2CN(C(=O)Nc3ccc(OC(F)(F)F)cc3)N=C2c2ccc(Cl)cc2)c1` (stereo not shown) [Example 19], 3.27.
Same read-out and setting: as for `N#Cc1cnn(C2CN(C(=O)Nc3ccc(SC(F)(F)F)cc3)N=C2c2ccc(SC(F)(F)F)cc2)c1` (stereo not shown) [Example 16], the figure is 4.73.
The same measure, in the same setting: as for `N#Cc1cnn(C2CN(C(=O)Nc3ccc(S(=O)(=O)C(F)(F)F)cc3)N=C2c2ccc(Cl)cc2)c1` (stereo not shown) [Example 18], the figure is 3.78.
With `COC(=O)c1cnn(C2CNN=C2c2ccc(Cl)cc2)c1` (stereo not shown) [II-5], the “logP (pH 2)” value is 2.13.
As for `NC(=O)c1cnn(C2CNN=C2c2ccc(Cl)cc2)c1` (stereo not shown) [II-8], the “logP (pH 2)” value turned out to be 1.28.
For the compound `N#CCN(C(=O)N1CC(n2cc(C#N)cn2)C(c2ccc(Cl)cc2)=N1)c1ccc(SC(F)(F)F)cc1` (stereo not shown) [Example 32], the “logP (pH 2)/m.p.” value was 3.90.
Regarding `NC(=O)c1cnn(C2CN(C(=O)Nc3ccc(OC(F)(F)F)cc3)N=C2c2ccc(Cl)cc2)c1` (stereo not shown) [Example 23], the “logP (pH 2)/m.p.” value was found to be 2.94.

The same data set, now with this note: reversed-phase C18 HPLC column; values in the text of the Preparation Examples; HPLC, acidic range pH 2.3, 43° C.; read-out: logP (pH 2).
Consider `N#CCNc1ccc(OC(F)(F)F)cc1` [XII-1, N-cyanomethyl-4-trifluoromethoxyaniline], for which the chromatographic logP stood at 2.49.
As for `O=C(O)c1cnn(CC(=O)c2ccc(Cl)cc2)c1` [1-(4-chlorophenacyl)-pyrazole-4-carboxylic acid], the chromatographic logP was found to be 1.67.
For the compound `N#Cc1cnn(C2CN(C(=O)Nc3ccc(Cl)cc3)N=C2c2ccc(Cl)cc2)c1` (stereo not shown) [Example 1, 4′-chloro-3-(4-chlorophenyl)-4-(4-cyanopyrazol-1-yl)-4,5-dihydro-1-pyrazolecarboxanilide], the chromatographic logP stood at 3.64.
Same read-out and setting: as for `CN(C)C(=O)c1cnn(CC(=O)c2ccc(Cl)cc2)c1` [VI-2, N,N-dimethyl-1-(4-chlorophenacyl)-pyrazole-4-carboxamide], the figure is 1.62.
With `N#CCN(C(=O)N1CC(n2cc(C#N)cn2)C(c2ccc(Cl)cc2)=N1)c1ccc(OC(F)(F)F)cc1` (stereo not shown) [Example 2, 3-(4-chlorophenyl)-4-(4-cyanopyrazol-1-yl)-4,5-dihydro-1-pyrazole-(N-cyanomethyl)-4′-trifluoromethoxycarboxanilide], the chromatographic logP was found to be 3.68.

Another data set concerns Lucilia cuprina larvae. Briefly: Blowfly larvae test/development-inhibitory action. Type of data set: in vivo. As to conditions: 20 ppm; after 48 h. Here is the method:
20 mg of active compound are dissolved in 1 ml of dimethyl sulphoxide. More dilute concentrations are prepared by dilution with distilled water.
About 20 Lucilia cuprina larvae are introduced into a test tube which contains about 1 cm^3 of horsemeat and 0.5 ml of the preparation of active compound to be tested. The activity of the preparation of active compound is determined after 24 and 48 hours. The test tubes are transferred into a beaker whose bottom is covered with sand. After a further 2 days, the test tubes are removed and the pupae are counted.
The activity of the preparation of active compound is assessed using the number of flies that have hatched after 1.5 times the development period of an untreated control. 100% means that none of the flies have hatched; 0% means that all of the flies have hatched normally.
Take `N#Cc1cnn(C2CN(C(=O)Nc3ccc(S(=O)(=O)C(F)(F)F)cc3)N=C2c2ccc(Br)cc2)c1` (stereo not shown) [drawing 82]: the “activity/kill rate in % after 48 h” value is 100/100%.
Same read-out and setting: under `N#Cc1cnn(C2CN(C(=O)Nc3ccc(OC(F)(F)F)cc3)N=C2c2ccc(Br)cc2)c1` (stereo not shown) [drawing 81] stands 100/100%.

Still in this data set, the particulars now being: 20 ppm; after 14 d.
With `CCOC(=O)N(C(=O)N1CC(n2cc(C#N)cn2)C(c2ccc(Cl)cc2)=N1)c1ccc(OC(F)(F)F)cc1` (stereo not shown) [drawing 89], the “activity/kill rate in % after 14 d” value turned out to be 100%.
On the same count and under the same terms, as for `N#Cc1cnn(C2CN(C(=O)Nc3ccc(C(F)(F)F)cc3)N=C2c2ccc(Cl)cc2)c1` (stereo not shown) [drawing 86], the figure is 100/100%.

Still in this data set, the particulars now being: 100 ppm; after 48 h.
With `N#Cc1cnn(C2CN(C(=O)Nc3ccc(S(=O)(=O)C(F)(F)F)cc3)N=C2c2ccc(Br)cc2)c1` (stereo not shown) [drawing 82], the “activity/kill rate in % after 48 h” value was 100/100%.
Regarding `N#Cc1cnn(C2CN(C(=O)Nc3ccc(OC(F)(F)F)cc3)N=C2c2ccc(Br)cc2)c1` (stereo not shown) [drawing 81], the “activity/kill rate in % after 48 h” value is listed as 100/100%.

The data set is the same for the next values; noted with them: 100 ppm; after 14 d.
For `N#Cc1cnn(C2CN(C(=O)Nc3ccc(C(F)(F)F)cc3)N=C2c2ccc(Cl)cc2)c1` (stereo not shown) [drawing 86], the “activity/kill rate in % after 14 d” value is 100/100%.
